Experimental findings from ChEMBL document CHEMBL1201862, “PubChem BioAssay data set” (2004) are described below.

Activity calls are given as the source filed them.

For test [1], the target named is Bcl-2-like protein 10 (Homo sapiens, UniProt Q9HD36). Nature of the test: Concentration-response of Bcl-B inhibitors by biochemical FP with TR3 (AID 1243). The class given is functional.
The target of test [2] is T1, Sentrin-specific protease 7 (Homo sapiens, UniProt Q9BQF6).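 Note: Luminescence-based dose-response confirmation of ultra-high-throughput screening hits, measuring inhibition of SENP7.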
T1 sequence (Q9BQF6 whole entry): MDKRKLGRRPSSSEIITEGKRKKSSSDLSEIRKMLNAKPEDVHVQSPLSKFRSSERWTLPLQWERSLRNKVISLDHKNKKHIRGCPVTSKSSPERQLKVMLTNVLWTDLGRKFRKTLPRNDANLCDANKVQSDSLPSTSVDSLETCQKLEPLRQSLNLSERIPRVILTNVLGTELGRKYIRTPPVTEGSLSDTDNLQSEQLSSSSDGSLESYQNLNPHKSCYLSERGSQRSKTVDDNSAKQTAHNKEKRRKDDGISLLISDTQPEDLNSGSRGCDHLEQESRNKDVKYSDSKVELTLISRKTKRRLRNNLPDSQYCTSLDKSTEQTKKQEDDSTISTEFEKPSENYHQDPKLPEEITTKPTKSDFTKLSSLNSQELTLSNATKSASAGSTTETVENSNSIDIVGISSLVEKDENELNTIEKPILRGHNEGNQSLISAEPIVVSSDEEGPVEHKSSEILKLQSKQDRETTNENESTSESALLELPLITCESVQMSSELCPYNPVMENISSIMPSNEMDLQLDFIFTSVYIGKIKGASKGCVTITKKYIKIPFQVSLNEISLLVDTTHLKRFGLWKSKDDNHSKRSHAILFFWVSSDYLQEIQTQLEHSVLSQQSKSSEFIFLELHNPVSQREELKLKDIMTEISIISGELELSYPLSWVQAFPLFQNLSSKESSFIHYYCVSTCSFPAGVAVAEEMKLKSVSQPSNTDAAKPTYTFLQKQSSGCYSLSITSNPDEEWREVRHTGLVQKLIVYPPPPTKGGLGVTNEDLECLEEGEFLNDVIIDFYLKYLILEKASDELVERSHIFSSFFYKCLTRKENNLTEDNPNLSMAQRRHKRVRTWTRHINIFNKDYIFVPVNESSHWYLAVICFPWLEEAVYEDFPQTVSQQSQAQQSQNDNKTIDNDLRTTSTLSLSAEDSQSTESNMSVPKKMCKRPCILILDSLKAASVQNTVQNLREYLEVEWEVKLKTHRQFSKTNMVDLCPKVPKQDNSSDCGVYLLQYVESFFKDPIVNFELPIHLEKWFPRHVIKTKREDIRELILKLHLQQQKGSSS
In kind it is functional.

The target in test [3] is T2, CAAX prenyl protease 2 (Saccharomyces cerevisiae S288c, UniProt Q03530).
T2 sequence (Q03530 whole entry): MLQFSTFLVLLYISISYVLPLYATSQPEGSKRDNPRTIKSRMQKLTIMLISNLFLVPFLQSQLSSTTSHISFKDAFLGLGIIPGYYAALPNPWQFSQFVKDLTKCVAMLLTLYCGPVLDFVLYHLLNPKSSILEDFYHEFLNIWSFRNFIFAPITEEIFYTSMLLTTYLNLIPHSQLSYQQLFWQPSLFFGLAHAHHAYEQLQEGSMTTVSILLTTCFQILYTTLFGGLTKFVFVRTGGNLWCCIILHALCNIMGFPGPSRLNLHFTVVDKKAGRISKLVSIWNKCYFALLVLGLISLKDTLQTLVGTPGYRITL
The class given is biochemical.

Test [4] can be described thus: blockade of melanocortin 4 receptor signaling – cell-based, plate reader, cherry pick, counter-screen for LGR2 antagonist project, dose response (AID 743444).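 Note: transfected HEK 293 cells stimulated with alpha-MSH peptide; potency of inhibitors of the alpha-MSH evoked signal.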 In kind it is functional. (The purpose of a counterscreen is to sort out artefacts and off-target activity.)
Test [5] can be described thus: Luminescence-based counterscreen assay for KLF5 inhibitors: dose response cell-based high throughput screening assay to identify cytotoxic compounds using the IEC-6 intestinal epithelial cell line. [Related pubchem assays: 1700 (Primary screen.), 1834 (Confirmation screen.), 1858 (Summary AID.), 1905 (Counterscreen.)]. In kind it is functional.
The target in test [6] is T3, Sentrin-specific protease 8 (Homo sapiens, UniProt Q96LD8).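 Note: luminescence read-out of SENP8 inhibition, dose-response confirmation following an ultra-high-throughput screen.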
T3 sequence (Q96LD8 whole entry): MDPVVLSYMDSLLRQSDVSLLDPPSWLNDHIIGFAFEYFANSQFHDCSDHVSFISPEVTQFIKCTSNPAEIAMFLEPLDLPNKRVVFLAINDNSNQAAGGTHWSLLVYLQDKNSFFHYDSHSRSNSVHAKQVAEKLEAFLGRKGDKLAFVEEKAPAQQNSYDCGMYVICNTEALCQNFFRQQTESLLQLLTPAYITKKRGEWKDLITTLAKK
In kind it is functional.

For test [7], the target named is Trypsin (Sus scrofa, UniProt P00761). Nature of the test: trypsin protease activity blockade – biochemical, quenched peptide fluorescence, cherry-pick, selectivity assay for Rce1 protease inhibitor project, dose response (AID 488789).
Trypsin, sequence (P00761 whole entry): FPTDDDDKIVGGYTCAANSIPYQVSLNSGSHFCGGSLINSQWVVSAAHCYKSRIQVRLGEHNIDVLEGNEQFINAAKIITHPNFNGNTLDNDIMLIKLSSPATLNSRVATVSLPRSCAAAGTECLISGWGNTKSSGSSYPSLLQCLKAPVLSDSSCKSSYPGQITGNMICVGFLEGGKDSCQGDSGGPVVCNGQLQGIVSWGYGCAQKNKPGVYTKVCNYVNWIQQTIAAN
Test [8] in a line: blockers of bursicon-stimulated LGR2 cAMP reporter – cell-based, HEK293, CRE-luciferase reporter, cherry pick, set 2, dose response (AID 743343).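 Note: transfected cells were stimulated with diluted bursicon conditioned medium after compound addition.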 The class given is functional. Background: A reporter such as luciferase makes a cellular process visible.
Test [9] addresses T4, Sentrin-specific protease 6 (Homo sapiens, UniProt Q9GZR1).
T4 sequence (Q9GZR1 whole entry): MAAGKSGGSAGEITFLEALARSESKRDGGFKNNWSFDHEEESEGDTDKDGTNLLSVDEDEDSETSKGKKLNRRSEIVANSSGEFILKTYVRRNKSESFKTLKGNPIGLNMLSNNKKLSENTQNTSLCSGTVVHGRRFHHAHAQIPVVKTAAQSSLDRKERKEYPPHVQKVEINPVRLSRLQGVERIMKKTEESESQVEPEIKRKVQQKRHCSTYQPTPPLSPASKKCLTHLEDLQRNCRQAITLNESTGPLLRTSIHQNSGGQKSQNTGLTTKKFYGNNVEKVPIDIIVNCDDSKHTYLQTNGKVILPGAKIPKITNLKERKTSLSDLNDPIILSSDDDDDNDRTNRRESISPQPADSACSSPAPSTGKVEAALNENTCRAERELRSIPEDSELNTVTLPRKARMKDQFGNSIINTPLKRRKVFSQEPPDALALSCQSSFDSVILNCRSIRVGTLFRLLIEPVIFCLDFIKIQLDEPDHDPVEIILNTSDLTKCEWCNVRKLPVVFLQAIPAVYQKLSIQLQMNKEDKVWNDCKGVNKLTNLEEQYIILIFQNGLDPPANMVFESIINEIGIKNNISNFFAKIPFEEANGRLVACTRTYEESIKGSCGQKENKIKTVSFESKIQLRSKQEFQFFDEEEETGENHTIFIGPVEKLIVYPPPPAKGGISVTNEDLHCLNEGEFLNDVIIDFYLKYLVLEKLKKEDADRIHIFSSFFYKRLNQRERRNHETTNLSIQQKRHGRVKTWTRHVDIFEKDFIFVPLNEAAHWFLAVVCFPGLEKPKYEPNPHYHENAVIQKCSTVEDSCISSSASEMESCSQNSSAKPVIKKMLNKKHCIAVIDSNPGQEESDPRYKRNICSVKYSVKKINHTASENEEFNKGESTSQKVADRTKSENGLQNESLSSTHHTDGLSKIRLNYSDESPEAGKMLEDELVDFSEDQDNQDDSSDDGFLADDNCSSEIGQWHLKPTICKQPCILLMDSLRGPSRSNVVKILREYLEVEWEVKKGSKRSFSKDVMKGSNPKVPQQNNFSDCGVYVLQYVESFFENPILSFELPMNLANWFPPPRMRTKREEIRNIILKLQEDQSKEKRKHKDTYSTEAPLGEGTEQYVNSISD
The class given is functional.

Test [10] deals with T5, Caspase-3 (Homo sapiens, UniProt P42574).
T5 sequence (P42574 whole entry): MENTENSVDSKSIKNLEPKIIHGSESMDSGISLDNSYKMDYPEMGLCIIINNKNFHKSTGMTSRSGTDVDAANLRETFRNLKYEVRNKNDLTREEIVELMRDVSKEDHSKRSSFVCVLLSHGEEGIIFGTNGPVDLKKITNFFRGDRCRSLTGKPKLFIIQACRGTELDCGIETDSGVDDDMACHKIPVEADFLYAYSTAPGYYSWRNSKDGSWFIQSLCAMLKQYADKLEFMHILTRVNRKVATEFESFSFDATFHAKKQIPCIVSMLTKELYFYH
In kind it is functional.

Bcl-2-like protein 10, sequence (Q9HD36 whole entry): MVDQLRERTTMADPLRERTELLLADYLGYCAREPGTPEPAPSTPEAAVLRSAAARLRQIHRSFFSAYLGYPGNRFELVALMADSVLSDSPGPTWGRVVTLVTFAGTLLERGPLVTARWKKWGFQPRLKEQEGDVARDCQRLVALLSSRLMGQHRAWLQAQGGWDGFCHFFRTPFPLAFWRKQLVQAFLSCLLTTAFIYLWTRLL

Usually EC50 stands for the concentration that produces a half-maximal response. Consider `Nc1ccc(S(=O)(=O)O)c2cccc(O)c12`, for which, in test [1], the concentration for a half-maximal effect (EC50) was 1.05 µM (active).
As a reminder, the IC50 is the point on the concentration scale where inhibition reaches its midpoint. Usually AC50 stands for the midpoint of the concentration-response curve, whichever way the signal moves. As to `Nc1c(C(=O)Nc2cccc(C(=O)O)c2)sc2nc3c(cc12)CCCC3`, the IC50 in test [2] was 7.47 µM (active); in [5], > 39.8 µM (not active); in [6] it was 31 µM (active); in test [9], 15.1 µM (active); in test [10] it was 71.6 µM (active). Further, the AC50 is 47.8 µM (active) in test [3], 3.29 µM (active) in test [4], 10.5 µM (active) in test [7] and 3.06 µM (active) in test [8].
